Active and inactive are the calls of the source. The calls are words filed in the database; no cut-off is given here.
What was measured:
[1] = tested on: Rattus norvegicus; assay: Inhibition of lethal factor-induced toxicity in Fischer 344 rat assessed as enhancement of survival rate at 5 mg/kg, iv followed by administration of 10 ug lethal toxin after 20 to 30 mins of compound dosing; type: functional, organism-based; design: dose 5 mg/kg
[2] = tested on: Rattus norvegicus; assay: Inhibition of lethal factor-induced toxicity in Fischer 344 rat assessed as enhancement of survival rate at 2.5 mg/kg, iv followed by administration of 10 ug lethal toxin after 20 to 30 mins of compound dosing; type: functional, organism-based; design: dose 2.5 mg/kg

With `Cc1cc(O[C@H](CCCCNCc2ccc(F)cc2)C(=O)NO)cc(C)c1F` the Survival [1] was “inactive”.
`CO[C@H](C[C@H](CCCCCNCc1ccc(F)cc1)C(=O)NO)c1ccc(F)cc1` was tested, and the Survival [1] was “inactive”.
In the case of `Cc1cc(O[C@H](CCCCCNCc2ccc(F)cc2)C(=O)NO)cc(C)c1F`, the Survival [1] is reported as “inactive”.
In the case of `Cc1cc(CNCCCC[C@@H](Nc2ccc(F)c(C)c2)C(=O)NO)ccc1F`, the Survival [1] is reported as “inactive”.
With `Cc1cc(N[C@H](CCCCNCc2ccc(F)cc2)C(=O)NO)cc(C)c1F` the Survival [1] was “Active” and the Survival [2] was “Active”.
For `Cc1cc(O[C@H](CCCCCNCCc2ccc(F)cc2)C(=O)NO)cc(C)c1F`, the Survival [1] was “inactive”.
`O=C(NO)[C@@H](CCCCNCc1ccc(F)cc1)Nc1ccc(F)c(Cl)c1` was tested, and the Survival [1] was “inactive”.
In the case of `CO[C@H](C[C@H](CCCCNCc1ccc(F)cc1)C(=O)NO)c1ccc(F)cc1`, the Survival [1] is reported as “Active” and the Survival [2] is reported as “inactive”.
In the case of `CO[C@H](C[C@H](CCCCCNCCc1ccc(F)cc1)C(=O)NO)c1ccc(F)cc1`, the Survival [1] is reported as “inactive”.
In the case of `Cc1cc(CNCCCC[C@@H](Nc2cc(C)c(F)c(C)c2)C(=O)NO)ccc1F`, the Survival [1] is reported as “Active” and the Survival [2] is reported as “inactive”.
In the case of `Cc1cc(CNCCCC[C@@H](Oc2ccc(F)c(C)c2)C(=O)NO)ccc1F`, the Survival [1] is reported as “inactive”.

Source: ChEMBL document CHEMBL1759992
